Experimental data: PubChem BioAssay (NCI)
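How tested: cells in 96-well plates exposed to compound for 48 hours at five concentrations. GI50: concentration for 50% inhibition of growth. Definition used: TGI = concentration required for complete inhibition of growth.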

What was measured:
Experiment in all cases: NCI anticancer screen, dose series, 48 h
[1] = system: M14 melanoma
[2] = system: U251 CNS
[3] = system: 786-0 renal
[4] = system: HS 578T breast
[5] = system: MALME-3M melanoma
[6] = system: SNB-19 CNS
[7] = system: UACC-62 melanoma
[8] = system: IGROV1 ovarian
[9] = system: HOP-92 NSCLC
[10] = system: ACHN renal

| SMILES | TGI [1] | TGI [2] | TGI [3] | TGI [4] | TGI [5] | TGI [6] | TGI [7] | TGI [8] | TGI [9] | TGI [10] | GI50 [1] | GI50 [2] | GI50 [3] | GI50 [4] | GI50 [5] | GI50 [6] | GI50 [7] | GI50 [8] | GI50 [9] | GI50 [10] |
| --- | --- | --- | --- | --- | --- | --- | --- | --- | --- | --- | --- | --- | --- | --- | --- | --- | --- | --- | --- | --- |
| O=C(/C=C/c1ccc(Cl)cc1)c1ccccc(=O)c1O | 20.1 µM | > 100 µM | 32.1 µM | 31.1 µM | 5.22 µM | 11.8 µM | 6 µM | 15.8 µM | 17 µM | 6.66 µM |  |  |  |  |  |  |  |  |  |  |
| CC(C)N1CCN(c2ccncc2S(=O)(=O)N2CCCCC2)CC1 | > 100 µM | > 100 µM | > 100 µM | > 100 µM | > 100 µM | > 100 µM | > 100 µM | > 100 µM | > 100 µM | > 100 µM |  |  |  |  |  |  |  |  |  |  |
| COc1ccc(C=Nc2c(C(=O)Nc3cccc(Cl)c3C)sc3nc(C)c(C(=O)/C=C/c4ccc(OC)cc4)cc23)cc1 | 1.57 µM | 18.4 µM | > 30 µM | 7.67 µM | > 50 µM | 28.3 µM | > 23.1 µM | > 50 µM | 7.12 µM | > 50 µM | 0.201 µM | 1.56 µM | 0.656 µM | 0.458 µM | 0.599 µM | 1.58 µM | 0.312 µM | 1.32 µM | 0.59 µM | 0.425 µM |
| COC(=O)c1ccc2c(c1)C(=O)c1c-2n(CCCCl)c(=O)c2cc([N+](=O)[O-])ccc12 | > 100 µM | > 100 µM | > 100 µM | > 100 µM | > 100 µM | > 100 µM | > 100 µM | > 100 µM | 90.9 µM | > 100 µM | 82.5 µM | 53.1 µM | 63.5 µM | > 100 µM | > 100 µM | 56.6 µM | 27.5 µM | 34.9 µM | 23.6 µM | 45.2 µM |
| CCCCOC(=O)c1ccc(N)cc1 | > 100 µM | > 100 µM | > 100 µM | > 100 µM | > 100 µM | > 100 µM | > 100 µM | > 100 µM | > 100 µM | > 100 µM | 41.1 µM | > 100 µM | 32.4 µM | 96.1 µM | > 100 µM | 75.2 µM | 17.9 µM | > 100 µM | 95.1 µM | 8.46 µM |
| NC(=NCc1ccccc1)C(N=Nc1ccccc1)C(=O)NCc1ccccc1 (configuration not stated) | 22.3 µM | 25.9 µM | 30 µM | 13.9 µM | 48.2 µM | 31.5 µM | 37.6 µM | 19.8 µM | 7.38 µM | 39.3 µM | 5.71 µM | 5.75 µM | 12.1 µM | 2.92 µM | 21.5 µM | 13.2 µM | 16.5 µM | 3.42 µM | 1.78 µM | 18.1 µM |
| CN(C)CCCN(CCC1CCCCC1)CCC1CCCCC1 | 3.66 µM | 3.81 µM | 9.16 µM | 4.76 µM | 3.77 µM | 18.8 µM | 3.35 µM | 4.65 µM | 9.7 µM | 14.4 µM | 1.87 µM | 1.67 µM | 2.74 µM | 1.9 µM | 1.83 µM | 5.63 µM | 1.79 µM | 1.91 µM | 1 µM | 4.14 µM |
| O=c1oc2ccc(I)cc2c(=O)n1-c1ccc(F)cc1F | 5.88 µM | 19 µM | 9.67 µM | 6.55 µM | 5.89 µM | > 100 µM | 4.19 µM | 33.2 µM | 3.78 µM | 8.42 µM | 1.71 µM | 2.64 µM | 3.03 µM | 2.04 µM | 1.94 µM | 2.63 µM | 1.31 µM | 2.07 µM | 0.7 µM | 2.52 µM |
| CO[C@H]1C=CO[C@@]2(C)Oc3c(C)c(O)c4c(O)c(c(CN5CCN(C)CC5)c(O)c4c3C2=O)NC(=O)/C(C)=C\C=C[C@H](C)[C@H](O)C(C)[C@@H](O)C(C)[C@H](OC(C)=O)[C@@H]1C (some centres not stated) | > 75 µM | > 100 µM | > 100 µM | > 100 µM | > 100 µM | > 100 µM | > 100 µM | > 100 µM | > 100 µM | > 100 µM |  |  |  |  |  |  |  |  |  |  |
| Cc1c2ccn(O)cc2c(C)c2c1nc1ccccc12 | > 100 µM | 16.7 µM | 35.4 µM | 8.44 µM | > 41.8 µM | 30.8 µM | 41.6 µM | 55.8 µM | 38.5 µM | > 85.7 µM |  |  |  |  |  |  |  |  |  |  |
| CC1=C2CC(C)(C)/C=C\C(=O)/C(C)=C\C3=C[C@H](C)C[C@]3(O2)C1=O | 1.27 µM | 9.98 µM | 1.25 µM | 22.3 µM | 2.34 µM | 37.2 µM | 3.37 µM | 5.44 µM | 2.88 µM | 2.9 µM |  |  |  |  |  |  |  |  |  |  |
| CC1(C)S[C@@H]2[C@H](N3C(=O)c4ccccc4C3=O)CN2[C@H]1NC(=O)N[C@@H]1N2C[C@@H](N3C(=O)c4ccccc4C3=O)[C@H]2SC1(C)C | > 100 µM | 58.5 µM | > 100 µM | > 100 µM | > 100 µM | > 100 µM | > 100 µM | > 100 µM | > 100 µM | > 100 µM |  |  |  |  |  |  |  |  |  |  |
| O=C1/C=C/[C@@H](O)[C@@H]2C[C@@H](O)C[C@H]2/C=C/CCC[C@H](CCc2cccc3ccccc23)O1 | 8.58 µM | 12.1 µM | 0.0372 µM | > 49.2 µM | 0.245 µM | 22 µM | 12.9 µM | 12.1 µM | 26.4 µM | 12.5 µM | 0.0492 µM | 0.0475 µM | 0.02 µM | 0.779 µM | 0.036 µM | 0.0923 µM | 0.038 µM | 0.267 µM | 12.3 µM | 0.305 µM |
| C=C(CN1CCN(c2ccc(C(F)(F)F)cc2)CC1)c1ccc(C(=O)Nc2ccccc2N)cc1 | > 100 µM | 31 µM | > 100 µM | > 100 µM | > 100 µM | 73.5 µM | > 100 µM | > 100 µM | 23.7 µM | > 100 µM | > 90.5 µM | 6.25 µM | 2.85 µM | 22.6 µM | 19.3 µM | 12.5 µM | 23 µM | 18.2 µM | 3.95 µM | 9.64 µM |
| C=C1CC2(CC(c3ccccc3Cl)OC(c3ccccc3Cl)C2)OC1=O (configuration not stated) | 3.39 µM | 15.6 µM | 4.66 µM | 4.71 µM | 8.19 µM | 29.5 µM | 4.68 µM | 4.62 µM | 4.65 µM | 9.82 µM |  |  |  |  |  |  |  |  |  |  |
| O=C(O)[C@H](Cc1c[nH]c2ccccc12)N1C(=O)c2ccccc2C1=O | > 100 µM | > 100 µM | > 100 µM | > 100 µM | > 100 µM | > 100 µM | > 100 µM | > 100 µM | > 100 µM | > 100 µM |  |  |  |  |  |  |  | > 100 µM | 72.3 µM |  |
